Measurements taken from PubChem BioAssay (NCI).
Where “and” joins values, the source holds several entries; their conditions need not be identical. Equal values may be shown once.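 Method: 48-hour compound exposure of cells in 96-well plates, five concentrations, linear interpolation of endpoints. Here, GI50 denotes the concentration required for 50% inhibition of growth. At the TGI there is no net growth.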

Assays:
Experiment in all cases: NCI-60 cell line screen, 48 h
A498 renal = test system: A498 renal
HCC-2998 colon = test system: HCC-2998 colon
IGROV1 ovarian = test system: IGROV1 ovarian
LOX IMVI melanoma = test system: LOX IMVI melanoma
MDA-MB-231 breast = test system: MDA-MB-231 breast
NCI-H226 lung = test system: NCI-H226 lung
NCI-H23 lung = test system: NCI-H23 lung
NCI/ADR-RES ovarian = test system: NCI/ADR-RES ovarian
TK-10 renal = test system: TK-10 renal
UACC-257 melanoma = test system: UACC-257 melanoma

Row | SMILES | GI50 (A498 renal) | TGI (A498 renal) | GI50 (HCC-2998 colon) | TGI (HCC-2998 colon) | GI50 (IGROV1 ovarian) | TGI (IGROV1 ovarian) | GI50 (LOX IMVI melanoma) | TGI (LOX IMVI melanoma) | GI50 (MDA-MB-231 breast) | TGI (MDA-MB-231 breast) | GI50 (NCI-H226 lung) | TGI (NCI-H226 lung) | GI50 (NCI-H23 lung) | TGI (NCI-H23 lung) | GI50 (NCI/ADR-RES ovarian) | TGI (NCI/ADR-RES ovarian) | GI50 (TK-10 renal) | TGI (TK-10 renal) | GI50 (UACC-257 melanoma) | TGI (UACC-257 melanoma)
1 | O=C(/C=C\c1ccnc2ccccc12)c1ccc([N+](=O)[O-])cc1 | 1.68 µM | > 100 µM | 6.05 µM | 29.9 µM | 16 µM | > 79.6 µM | 1.83 µM | 3.75 µM | 8.63 µM | 38.7 µM | 6.35 µM | > 100 µM | 5.54 µM | 59.5 µM | 8.68 µM | > 100 µM | 21.3 µM | > 100 µM | 8.8 µM | > 60.7 µM
2 | COc1ccc(C(Nc2ncccn2)c2cc3c(cc2O)OCO3)cc1 (configuration not stated) |  | > 100 µM |  | 47.4 µM |  | 59.3 µM |  | 32.2 µM |  | 48.2 µM |  | 44.6 µM |  | 35.3 µM |  | > 100 µM |  | 37.6 µM |  | 36.4 µM
3 | CC#CC(=O)N1CCC[C@H]1c1nc(-c2ccc(C(=O)Nc3ccccn3)cc2)c2c(N)nccn12 | 26.4 µM | > 81.9 µM | > 100 µM | > 100 µM | 18 µM | > 83.8 µM | 98.5 µM | > 100 µM | 28.1 µM | > 100 µM | > 65.4 µM | > 100 µM | > 100 µM | > 100 µM | > 100 µM | > 100 µM | 21.1 µM | > 100 µM | 50.1 µM | > 100 µM
4 | C=C(C)[C@H]1CC/C(C)=C/CCC(C)C(=O)CC/C(CO)=C\[C@@H]1O (some centres not stated) | 68.7 µM | > 100 µM | > 100 µM | > 100 µM | > 100 µM | > 100 µM | 57.3 µM | > 100 µM | > 100 µM | > 100 µM | > 100 µM | > 100 µM | > 100 µM | > 100 µM | > 100 µM | > 100 µM | 70.8 µM | > 100 µM | > 100 µM | > 100 µM
5 | C#Cc1ccc(NC(=O)c2ccc(/C=C/C(=O)c3nccn3C)cc2)cc1 | 0.512 µM | 1.39 µM | 0.434 µM | 0.804 µM | 0.407 µM | 0.884 µM | 0.365 µM | 0.711 µM | 0.761 µM | 2.71 µM | 0.605 µM | 2 µM | 0.46 µM | 1.06 µM | 0.77 µM | 25 µM | 0.905 µM | 4.66 µM | 0.66 µM | 2.21 µM
6 | O=Nc1c(O)ccc2ccccc12 | 16.7 µM | 31.4 µM | 13.4 µM | 27.9 µM | 2.15 µM | 5.78 µM | 2.36 µM | 7.51 µM | 2.03 µM | 10.2 µM | 15.6 µM | 33.4 µM |  |  | 2.92 µM | 9.21 µM |  |  | 1.64 µM | 3.2 µM
7 | CC(C)C(N)(C(=O)O)c1ccccc1 (configuration not stated) |  | > 100 µM |  | > 100 µM |  | > 100 µM |  | > 100 µM |  | > 100 µM |  | > 100 µM |  | > 100 µM |  | > 100 µM |  | > 100 µM |  | > 100 µM
8 | Cc1nc(NC(=O)N2CCC[C@H]2C(N)=O)sc1-c1ccnc(C(C)(C)C(F)(F)F)c1 | 1.34 µM and 2.07 µM | 5.62 µM and 9.99 µM | 12.8 µM and 6.71 µM | 49.9 µM and > 10 µM | 0.0558 µM and 0.121 µM | 0.483 µM and 0.816 µM | 3.36 µM and 2.58 µM | 22 µM and > 10 µM | 11.3 µM and > 10 µM | 32 µM and > 10 µM | 5.26 µM and 4.54 µM | 45.7 µM and > 10 µM | 10.2 µM and > 10 µM | 61.9 µM and > 10 µM | 14.6 µM and > 10 µM | 85.8 µM and > 10 µM | 1.2 µM and 0.789 µM | 15.8 µM and > 10 µM | 9.58 µM and > 10 µM | 45 µM and > 10 µM
9 | COc1ccc(/C=C2\N=C3SC=C(N)N3C2=O)cc1 | 0.177 µM | 1.37 µM | 1.65 µM | 3.28 µM | 0.499 µM | 2.39 µM | 0.964 µM | 2.43 µM | 1.05 µM | 3.63 µM | 1.16 µM | 7.04 µM | 1.67 µM | 8.47 µM | 2.76 µM | 18.6 µM |  |  | 1.06 µM | 5.33 µM
10 | C[Se]C(=O)CC1=C2C=C(F)C=CC2/C(=C\c2ccc(S(C)=O)cc2)C1C (configuration not stated) | 0.0422 µM | 0.192 µM | 1.63 µM | 6.79 µM | 0.0972 µM | 3.17 µM | 0.0141 µM | 0.0296 µM | 0.0427 µM | 0.327 µM | < 0.0164 µM | 0.317 µM | 0.065 µM | 1.03 µM | 0.0776 µM | 3.96 µM |  |  | 0.0875 µM | 2.42 µM
